Here are results for 15 compounds from patent US20030153571A1 (priority 2002, published 2003).

System in the first data set: not given
Experiment: not given
Conditions: not given
What is called melting point is the temperature, or range, at which the solid turns liquid. As to `CS(=O)(=O)O.O=c1c2ccc(Cl)cc2[nH]c2c(O)nn(CCc3ccncc3)c(=O)c12` [Ex. 2, (+/−)-7-Chloro-4-hydroxy-2-(4-pyridyleth-1-yl)-1,2,5,10-tetrahydropyridazino[4,5-b]quinoline-1,10-dione methanesulfonate], the melting point was 245 to 248 °C.

For another data set, the target named is T1, NMDA receptor glycine site (Rattus norvegicus, UniProt P35439).
T1 construct: to brain membranes bearing the receptor; tissue Analytical Biological Services Inc; host or cells: rat brain membranes (cerebral cortex and hippocampus, male Sprague Dawley rats)
The data set is described as follows: Test A: Inhibition of binding of [3H]-MDL105,519 to brain membranes. The settings on record: inhibition of [3H]MDL105,519 binding, brain membranes. The source says: Test A: Inhibition of binding of [^3H]-MDL105,519:
Binding of compounds to the NMDA receptor glycine site may be assessed by measuring the ability of test compounds to inhibit the binding of tritiated MDL105,519 to brain membranes bearing the receptor.
Briefly, fresh brain tissue including cerebral cortex and hippocampus from male Sprague Dawley rats was homogenized in 0.32 M sucrose and centrifuged at low speed to separate cellular membranes from other cellular components. The membranes were then washed 3 times using deionized water, followed by treatment with 0.04% Triton X-100. Finally, membranes were washed six times in 50 mM Tris citrate buffer, pH 7.4, and frozen at −80° C. until use.
[^3H]MDL105,519 (72 Ci/mmol) was purchased from Amersham. Cold MDL105,519 was purchased from Sigma/RBI. […] On the day of the experiment, brain membranes were thawed at room temperature and suspended in 50 mM tris acetate buffer, pH 7.4 (“TAB”). Seventy-five micro grams per milliliter protein (by using the BioRad dye) were used for competition binding. The experiments were carried out using 96-well plates. […] Non specific binding was determined by using 100 μM of unlabeled MDL105,519. […] After incubation, unbound [^3H]MDL105,519 was removed by filtration onto GF/B Unifilter plates using a Packard harvester. Filters were washed four times with ice cold TAB (total of 1.2 mL buffer). The plates were dried overnight at room temperature and bound radioactivity was measured on a Packard TopCount after the addition of 45 μL per well of the MICROSCINT O.
Human Brain Membranes: Human brain membranes were obtained from Analytical Biological Services Inc., and assays were performed as described for rat membranes.
Data analysis: Data was analyzed using a Microsoft Excel spreadsheet and GraphPad Prizm software and potency of compounds is expressed as the Ki (nM).
A word on the Ki: it is a dissociation constant, usually derived from enzyme kinetics or from competition with a known ligand. The low end stands for a stronger hold on the target, the high end for a looser hold on the target. Regarding `CCCC(c1ccccn1)n1nc(O)c2[nH]c3cc(Cl)ccc3c(=O)c2c1=O` (racemic) [Ex. 6, (+/−)-7-Chloro-4-hydroxy-2-(butyl-1-(2-pyridyl))-1,2,5,10-tetrahydropyridazino[4,5-b]quinoline-1,10-dione methanesulfonate], the inhibition constant (Ki) was above 10000 nM.

Staying with this data set, now noted: inhibition of [3H]MDL105,519 binding, brain membranes (rat and human membranes described; table does not say which).
For `CC(c1ccco1)n1nc(O)c2[nH]c3cc(Cl)ccc3c(=O)c2c1=O` (racemic), the inhibitory constant (Ki) was found to be 153 nM.
On the same count and under the same terms, as for `CCC(c1ccccn1)n1[nH]c(=O)c2nc3cc(Cl)ccc3c(O)c2c1=O` (racemic) [Ex. 4, (+/−)-7-Chloro-4-hydroxy-2-(propyl-1-(2-pyridyl))-1,2,5,10-tetrahydropyridazino [4,5-b]quinoline-1,10-dione methanesulfonate], the figure is 1810 nM.
Still for that read-out and setting: as for `CCCC(c1ccncc1)n1nc(O)c2[nH]c3cc(Cl)ccc3c(=O)c2c1=O` (racemic) [Ex. 7, (+/−)-7-Chloro-4-hydroxy-2-(butyl-1-(4-pyridyl))-1,2,5,10-tetrahydropyridazino[4,5-b]quinoline-1,10-dione], the figure is 4340 nM; as for `CC(C)C(c1ccncc1)n1nc(O)c2[nH]c3cc(Cl)ccc3c(=O)c2c1=O` (racemic) [Ex. 8, (+/−)-7-Chloro-4-hydroxy-2-(propyl-(2-methyl-1-(4-pyridyl))-1,2,5,10-tetrahydropyridazino[4,5-b]quinoline-1,10-dione methanesulfonate], 5230 nM; as for `CC(C)CC(c1ccncc1)n1[nH]c(=O)c2nc3cc(Cl)ccc3c(O)c2c1=O` (racemic) [Ex. 12, (+/−)-7-Chloro-4-hydroxy-2-(3-methyl-1-(4-pyridyl)butyl)-1,2,5,10-tetrahydropyridazino[4,5-b]quinoline-1,10-dione], 5230 nM.
`COc1cnccc1C(C)n1nc(O)c2[nH]c3cc(Cl)ccc3c(=O)c2c1=O` (racemic) [Ex. 13, (+/−)7-Chloro-4-hydroxy-2-(1-(3-methoxypyrid-4-yl))ethyl-1,2,5,10-tetrahydropyridazino[4,5-b]quinoline-1,10-dione methanesulfonate] displayed an inhibition constant Ki of 568 nM.
Still for that read-out and setting: the result for `COc1ccc(C(C)n2nc(O)c3[nH]c4cc(Cl)ccc4c(=O)c3c2=O)cn1` (racemic) [Ex. 14, (+/−)-7-Chloro-4-hydroxy-2-(1-(2-methoxypyrid-5-yl))ethyl-1,2,5,10-tetrahydropyridazino[4,5-b]quinoline-1,10-dione methanesulfonate] reads 312 nM; that for `CC(c1ccnc(Cl)c1)n1nc(O)c2[nH]c3cc(Cl)ccc3c(=O)c2c1=O` (racemic) [Ex. 16, (+/−)-7-Chloro-1-hydroxy-2-(2-chloro(4-pyridyl)ethyl)-1,2,5,10-tetrahydropyridazino[4,5-b]quinoline-1,10-dione], 51 nM.
Same read-out and setting: as for `O=c1c2ccc(Cl)cc2[nH]c2c(O)nn(CCc3cccnc3Cl)c(=O)c12` [Ex. 15, (+/−)-7-Chloro-4-hydroxy-2-(2-chloro-pyrid-3-yl)ethyl-1,2,5,10-tetrahydropyridazino[4,5-b]quinoline-1,10-dione], the figure is 676 nM; as for `CC(c1cc2ccccc2s1)n1nc(O)c2[nH]c3cc(Cl)ccc3c(=O)c2c1=O` (centres unmarked) [Ex. 21], 177 nM; as for `CC(c1ccc(C#N)s1)n1nc(O)c2[nH]c3cc(Cl)ccc3c(=O)c2c1=O` (centres unmarked) [Ex. 22, 7-Chloro-4-hydroxy-2-(1-(5-cyanothien-2-yl)ethyl)-1,2,5,10-tetrahydropyridazino[4,5-b]quinoline-1,10-dione], 692 nM.
`CC(c1cnccn1)n1nc(O)c2[nH]c3cc(Cl)ccc3c(=O)c2c1=O` (centres unmarked) [Ex. 23, 7-Chloro-4-hydroxy-2-(ethyl-1-(pyrazin-2-yl))-1,2,5,10-tetrahydropyridazino [4,5-b]quinoline-1,10-dione] displayed an inhibition constant Ki of 336 nM.
For “(+/−)-7-Chloro-4-hydroxy-2-(4-pyridylprop-1-yl)-1,2,5,10-tetrahydropyridazino[4,5-b]quinoline-1,10-dione sodium methanesulfonate [Ex. 3]”, the inhibitory constant (Ki) amounted to 1940 nM.

For another data set, the system named is CCI rats (thermal hyperalgesia). The data set is described as follows: Test C: Neuropathic pain model (Chronic Constriction Injury), thermal hyperalgesia paw-withdrawal test. The data set is classed as in vivo, rat. To be noted: oral, three times daily for 5 days, at the MED, compared to vehicle-treated animals. The text has this: Test C: Neuropathic pain model (Chronic Constriction Injury):
The anti-hyperalgesic properties of a compound may be tested with the Chronic Constriction Injury (“CCI”) model. The test is a model for neuropathic pain associated with nerve injuries that can arise directly from trauma and compression, or indirectly from a wide range of diseases such as infection, cancer, metabolic conditions, toxins, nutritional deficiencies, immunological dysfunction, and musculoskeletal changes. In the model a unilateral peripheral hyperalgesia is produced in rats by nerve ligation (G. J. Bennett, et al., Pain 33, 87-107 (1988)).
Procedurally, Sprague-Dawley rats (250-350 g) are anesthetized with sodium pentobarbital and the common sciatic nerve is exposed at the level of the mid thigh by blunt dissection through the biceps femoris. […] Thermal hyperalgesia is measured using a paw-withdrawal test (K. Hargreaves, et al., Pain 32, 77-88 (1988)). […] The latencies for the withdrawal reflex in both hind paws are recorded.
Injured paws with ligated nerves show shorter paw withdrawal latencies compared to the uninjured or sham operated paws. Responses to test compounds are evaluated at different times after oral administration to determine the onset and duration of compound effect. […] Paw withdrawal latencies are measured each day 10 min before and 2 or 3 hr. after the first daily dose. […]
Take “(+/−)-7-Chloro-4-hydroxy-2-(4-pyridylprop-1-yl)-1,2,5,10-tetrahydropyridazino[4,5-b]quinoline-1,10-dione sodium methanesulfonate [Ex. 3]”: the “Test C %Inh. (percent decrease in hyperalgesia at the MED)” value turned out to be 10%.

The same data set, now with this note: oral, three times daily for 5 days, dose giving statistically significant decrease in hyperalgesia.
For “(+/−)-7-Chloro-4-hydroxy-2-(4-pyridylprop-1-yl)-1,2,5,10-tetrahydropyridazino[4,5-b]quinoline-1,10-dione sodium methanesulfonate [Ex. 3]”, the “Test C MED (minimum effective dose)” value was 30 mg/kg/day.
